{"source": "patent US20200093103A1", "about": "“BREEDING WATER FOR ANGUILLIFORMES AND METHOD FOR REARING ANGUILLIFORMES” (SHIN NIPPON BIOMEDICAL LABORATORIES, LTD., priority 2016, published 2020)", "system": "Anguilla japonica leptocephali", "test": "Induction of Anguilla japonica metamorphosis by T4 treatment in 23° C. breeding water", "type": "in vivo", "parameters": "key: L: During life, no characteristics of metamorphosis seen.; Stage 1: Starting phase of metamorphosis. The rostral end is rounded, and intestinal degeneration starts.; Stage 2: Peak phase of metamorphosis. Intestinal degeneration becomes pronounced.; Stage 3: Late phase of metamorphosis.; Stage 4: Pre-glass eel stage. Almost the eel form, but the body height still remains", "excerpt": "Stage 1: Starting phase of metamorphosis. The rostral end is rounded, and intestinal degeneration starts.\nStage 2: Peak phase of metamorphosis. Intestinal degeneration becomes pronounced. In the second half, the anus reaches to near the last vertical blood vessel (VBV last).\nStage 3: Late phase of metamorphosis. The preanal length (PAL) becomes equal to or shorter than the last vertical blood vessel length (VBV last Length) (PAL VBV last Length). The body height is apparently low.\nStage 4: Pre-glass eel stage. Almost the eel form, but the body height still remains. Melanophores on the body surface or endogenous melanophores are not yet seen.\nElver stage: Juvenile stage. Food intake can be identified.\nA thyroid hormone (e.g., thyroxine (T4)) is adjusted to 50 to 100 mM in a 1- to 2-mL volume messflask. As a solvent, known solvents (water, alcohol) can be used. Ethanol is preferably used as the solvent.\nFor example, using ethanol as a solvent, T4 adjusted to 50 mM is diluted 500-fold, 5,000-fold, and 50,000-fold, respectively, and adjusted to […], 1 μM, and 100 nM. A feed can be prepared in this manner.\nArtificial seawater is added to a breeding vessel, and 1/1000 of the […] T4 is added to prepare […] T4 breeding water.\nHalf of the breeding water is replaced every two days with breeding water of the same concentration. In the case where the concentration is changed, for example, in the case of changing from 10 nM to 2 nM, 80% to the breeding water is removed, and unadjusted artificial seawater is newly added to make 1 L.\nLeptocephali visually considered to have reached a total length of 40 mm (or may be 30 mm to 50 mm, may be 35 mm to 45 mm, or may also be 35 mm or more, 40 mm or more, or 45 mm or more) are selected, anesthetized with 2-phenoxyethanol, and then photographed, and the total length of each larva is measured using an image analyzing device.\nThe larvae are placed in 10 nM T4 breeding water and then placed in an incubator set at 23° C., and breeding is started. In first one week, observation is performed every two days, and half of the 10 nM T4 breeding water is replaced each time. The average amount of thyroid hormone in the breeding water in stage 1 is 1 nM to 100 nM, for example, and may also be 3 nM to 30 nM, or 5 nM to 20 nM.\nFor larvae visually judged to have reached the second half of stage 2, the concentration of the breeding water is changed. The breeding water is diluted 5-fold or 10-fold and adjusted to 2 nM or 1 nM T4, and breeding is continued. The average amount of thyroid hormone in the breeding water in stage 2 may be, as compared with the breeding water of stage 1, diluted 2-fold to 20-fold, diluted 3 to 15-fold, or diluted 5 to 10-fold as described above. The average amount of thyroid hormone in the breeding water in stage 2 is 0.1 nM to 20 nM, for example, and may also be 0.5 nM to 10 nM, 1 nM to 5 nM, or 1 nM to 2 nM.\nFor larvae visually judged to have reached stage 3, the breeding water is quickly changed 0.2 nM T4 breeding water, which is a 5-fold dilution of 1 nM T4 breeding water, and further changed to 0.1 nM T4 breeding water on the following day. […] Also, in larvae whose anus position has not reached the last vertical hemal spine, when they are judged to be on the brink of stage 3, the concentration is changed as above. The average amount of thyroid hormone in the breeding water in stage 3 may be, as compared with the breeding water of stage 2, diluted 2-fold to 50-fold, diluted 3 to 15-fold, diluted 4 to 6-fold, or diluted 5-fold as described above. The average amount of thyroid hormone in the breeding water in stage 3 is 0.01 nM to 2 nM, for example, and may also be 0.05 nM to 1 nM, 0.1 nM to 0.5 nM, or 0.1 nM to 0.2 nM. […] That is, the concentration may be changed such that the thyroid hormone becomes undetectable in the breeding water in the course of stage 3.\nIn stage 3, breeding is continuously performed in the 0.1 nM T4 breeding water. […]", "data": [{"compound": "N[C@@H](Cc1cc(I)c(Oc2cc(I)c(O)c(I)c2)c(I)c1)C(=O)O", "note": "[T4, thyroxine]", "values": [{"measurement": "metamorphosis stage", "setting": "individual Exp 5-5, 174 days old, total length 36.1 mm at start, c3 onward = treatment days 1,3,5,7,8,9,10,11,12,13,14,15,16,17, T4 (nM) 10,10,10,10,10,10,10,2,0.2,0.1,0.1,0.1,0.1,0.1, treatment day 16, T4 0.1 nM", "result": 3}, {"measurement": "metamorphosis stage", "setting": "individual Exp 5-5, 174 days old, total length 36.1 mm at start, c3 onward = treatment days 1,3,5,7,8,9,10,11,12,13,14,15,16,17, T4 (nM) 10,10,10,10,10,10,10,2,0.2,0.1,0.1,0.1,0.1,0.1, treatment day 17, T4 0.1 nM", "result": 4}, {"measurement": "metamorphosis stage", "setting": "individual Exp 6-2, 129 days old, total length 38.1 mm at start, c3 onward = treatment days 1,3,5,7,9,10,11,12,13,14,15,16,17,18, T4 (nM) 10,10,10,10,10,2,0.2,0.1,0.1,0.1,0.1,0.1,0.1,0.1", "result": 3}, {"measurement": "metamorphosis stage", "setting": "individual Exp. 5-1, 175 days old, total length 38.5 mm at start, c3 onward = treatment days 1,3,5,7,8,9,10,11,12,13,14,15,16,17,18, T4 (nM) 10,10,10,10,2,1,0.2,0.1,0.1,0.1,0.1,0.1, treatment day 1, T4 10 nM", "result": "L"}, {"measurement": "metamorphosis stage", "setting": "individual Exp. 5-1, 175 days old, total length 38.5 mm at start, c3 onward = treatment days 1,3,5,7,8,9,10,11,12,13,14,15,16,17,18, T4 (nM) 10,10,10,10,2,1,0.2,0.1,0.1,0.1,0.1,0.1, treatment day 3, T4 10 nM", "result": "L"}, {"measurement": "metamorphosis stage", "setting": "individual Exp. 5-1, 175 days old, total length 38.5 mm at start, c3 onward = treatment days 1,3,5,7,8,9,10,11,12,13,14,15,16,17,18, T4 (nM) 10,10,10,10,2,1,0.2,0.1,0.1,0.1,0.1,0.1, treatment day 5, T4 10 nM", "result": 1}, {"measurement": "metamorphosis stage", "setting": "individual Exp. 5-1, 175 days old, total length 38.5 mm at start, c3 onward = treatment days 1,3,5,7,8,9,10,11,12,13,14,15,16,17,18, T4 (nM) 10,10,10,10,2,1,0.2,0.1,0.1,0.1,0.1,0.1, treatment day 7, T4 10 nM", "result": 2}, {"measurement": "metamorphosis stage", "setting": "individual Exp. 5-1, 175 days old, total length 38.5 mm at start, c3 onward = treatment days 1,3,5,7,8,9,10,11,12,13,14,15,16,17,18, T4 (nM) 10,10,10,10,2,1,0.2,0.1,0.1,0.1,0.1,0.1, treatment day 8, T4 2 nM", "result": 2}, {"measurement": "metamorphosis stage", "setting": "individual Exp. 5-1, 175 days old, total length 38.5 mm at start, c3 onward = treatment days 1,3,5,7,8,9,10,11,12,13,14,15,16,17,18, T4 (nM) 10,10,10,10,2,1,0.2,0.1,0.1,0.1,0.1,0.1, treatment day 9, T4 1 nM", "result": 2}, {"measurement": "metamorphosis stage", "setting": "individual Exp. 5-1, 175 days old, total length 38.5 mm at start, c3 onward = treatment days 1,3,5,7,8,9,10,11,12,13,14,15,16,17,18, T4 (nM) 10,10,10,10,2,1,0.2,0.1,0.1,0.1,0.1,0.1, treatment day 10, T4 0.2 nM", "result": 3}, {"measurement": "metamorphosis stage", "setting": "individual Exp. 5-1, 175 days old, total length 38.5 mm at start, c3 onward = treatment days 1,3,5,7,8,9,10,11,12,13,14,15,16,17,18, T4 (nM) 10,10,10,10,2,1,0.2,0.1,0.1,0.1,0.1,0.1, treatment day 11, T4 0.1 nM", "result": 3}, {"measurement": "metamorphosis stage", "setting": "individual Exp. 5-1, 175 days old, total length 38.5 mm at start, c3 onward = treatment days 1,3,5,7,8,9,10,11,12,13,14,15,16,17,18, T4 (nM) 10,10,10,10,2,1,0.2,0.1,0.1,0.1,0.1,0.1, treatment day 12, T4 0.1 nM", "result": 3}, {"measurement": "metamorphosis stage", "setting": "individual Exp. 5-1, 175 days old, total length 38.5 mm at start, c3 onward = treatment days 1,3,5,7,8,9,10,11,12,13,14,15,16,17,18, T4 (nM) 10,10,10,10,2,1,0.2,0.1,0.1,0.1,0.1,0.1, treatment day 13, T4 0.1 nM", "result": 3}, {"measurement": "metamorphosis stage", "setting": "individual Exp. 5-1, 175 days old, total length 38.5 mm at start, c3 onward = treatment days 1,3,5,7,8,9,10,11,12,13,14,15,16,17,18, T4 (nM) 10,10,10,10,2,1,0.2,0.1,0.1,0.1,0.1,0.1, treatment day 14, T4 0.1 nM", "result": 3}, {"measurement": "metamorphosis stage", "setting": "individual Exp. 5-1, 175 days old, total length 38.5 mm at start, c3 onward = treatment days 1,3,5,7,8,9,10,11,12,13,14,15,16,17,18, T4 (nM) 10,10,10,10,2,1,0.2,0.1,0.1,0.1,0.1,0.1, treatment day 15, T4 0.1 nM", "result": 4}, {"measurement": "metamorphosis stage", "setting": "individual Exp. 5-2, 175 days old, total length 41.3 mm at start, c3 onward = treatment days 1,3,5,7,8,9,10,11,12,13,14,15,16,17,18, T4 (nM) 10,10,10,10,2,1,0.2,0.1,0.1,0.1,0.1,0.1, treatment day 1, T4 10 nM", "result": "L"}, {"measurement": "metamorphosis stage", "setting": "individual Exp. 5-2, 175 days old, total length 41.3 mm at start, c3 onward = treatment days 1,3,5,7,8,9,10,11,12,13,14,15,16,17,18, T4 (nM) 10,10,10,10,2,1,0.2,0.1,0.1,0.1,0.1,0.1, treatment day 3, T4 10 nM", "result": "L"}, {"measurement": "metamorphosis stage", "setting": "individual Exp. 5-2, 175 days old, total length 41.3 mm at start, c3 onward = treatment days 1,3,5,7,8,9,10,11,12,13,14,15,16,17,18, T4 (nM) 10,10,10,10,2,1,0.2,0.1,0.1,0.1,0.1,0.1, treatment day 5, T4 10 nM", "result": 2}, {"measurement": "metamorphosis stage", "setting": "individual Exp. 5-2, 175 days old, total length 41.3 mm at start, c3 onward = treatment days 1,3,5,7,8,9,10,11,12,13,14,15,16,17,18, T4 (nM) 10,10,10,10,2,1,0.2,0.1,0.1,0.1,0.1,0.1, treatment day 7, T4 10 nM", "result": 2}, {"measurement": "metamorphosis stage", "setting": "individual Exp. 5-2, 175 days old, total length 41.3 mm at start, c3 onward = treatment days 1,3,5,7,8,9,10,11,12,13,14,15,16,17,18, T4 (nM) 10,10,10,10,2,1,0.2,0.1,0.1,0.1,0.1,0.1, treatment day 8, T4 2 nM", "result": 2}, {"measurement": "metamorphosis stage", "setting": "individual Exp. 5-2, 175 days old, total length 41.3 mm at start, c3 onward = treatment days 1,3,5,7,8,9,10,11,12,13,14,15,16,17,18, T4 (nM) 10,10,10,10,2,1,0.2,0.1,0.1,0.1,0.1,0.1, treatment day 9, T4 1 nM", "result": 2}, {"measurement": "metamorphosis stage", "setting": "individual Exp. 5-2, 175 days old, total length 41.3 mm at start, c3 onward = treatment days 1,3,5,7,8,9,10,11,12,13,14,15,16,17,18, T4 (nM) 10,10,10,10,2,1,0.2,0.1,0.1,0.1,0.1,0.1, treatment day 10, T4 0.2 nM", "result": 3}, {"measurement": "metamorphosis stage", "setting": "individual Exp. 5-2, 175 days old, total length 41.3 mm at start, c3 onward = treatment days 1,3,5,7,8,9,10,11,12,13,14,15,16,17,18, T4 (nM) 10,10,10,10,2,1,0.2,0.1,0.1,0.1,0.1,0.1, treatment day 11, T4 0.1 nM", "result": 3}, {"measurement": "metamorphosis stage", "setting": "individual Exp. 5-2, 175 days old, total length 41.3 mm at start, c3 onward = treatment days 1,3,5,7,8,9,10,11,12,13,14,15,16,17,18, T4 (nM) 10,10,10,10,2,1,0.2,0.1,0.1,0.1,0.1,0.1, treatment day 12, T4 0.1 nM", "result": 3}, {"measurement": "metamorphosis stage", "setting": "individual Exp. 5-2, 175 days old, total length 41.3 mm at start, c3 onward = treatment days 1,3,5,7,8,9,10,11,12,13,14,15,16,17,18, T4 (nM) 10,10,10,10,2,1,0.2,0.1,0.1,0.1,0.1,0.1, treatment day 13, T4 0.1 nM", "result": 3}]}]}
